According to PMC10770490, “Two distinct modes of action of molecular glues in the plant hormone co-receptor COI1-JAZ system” (iScience, 2023):
pKd: −log10 of the molar value. Where two headings read alike, the source gives them in different places.

Columns and labels:
COI1-JAZ1 = molecular target: T1, COI1-JAZ1 (Arabidopsis thaliana, UniProt O04197+Q9LMA8, DEL221-253); test: biochemical; type: binding
T1 construct: GST (N, cleaved yes); made in house; host or cells: Sf9 insect cells (COI1-ASK1); JAZ peptide by chemical synthesis
T1 sequence (Q9LMA8 200-220, stated change not applied, one chain of several): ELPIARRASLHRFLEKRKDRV
Experimental: (§1) JAZ1/9 peptides were dissolved in sterilized water to generate 10 mM stock solutions and diluted to prepare 100 μM stock solutions. […] DSF experiments were carried out using StepOnePlus Real-Time PCR System (Thermo Fisher Scientific, Inc., MA, US). Protein Thermal Shift Dye (Thermo Fisher Scientific, Inc., MA, US) was used as the reporter dye. […] Samples were heated from 25 °C to 95 °C. The denaturation curve was obtained using Protein Thermal Shift Software (Thermo Fisher Scientific, Inc., MA, US) to afford ΔTm value for each condition. An average ΔTm value of three independent measurements was plotted, and ΔTm dose-response curves were analyzed with nonlinear curve-fitting analysis to evaluate Ka and Kd values using KaleidaGraph software (v4.1.1, Synergy Software).
(§2) The determination of the Kd value was conducted by curve fitting the dose-response ΔTm values. Experiments were performed in triplicate to obtain the mean and S.D. (shown as error bars). Dose-response curves were analyzed with the nonlinear curve-fitting analysis to evaluate apparent Ka and Kd values using KaleidaGraph v4.1.1 software.

COI1 [1] = molecular target: T2, COI1 (Arabidopsis thaliana, UniProt O04197); test: Differential scanning fluorimetry (DSF) assay, COI1 alone; type: binding; details: for shift in the melting point of COI1: COI1 alone, substance titrated
T2 construct: GST (N, cleaved yes); made in house; host or cells: Sf9 insect cells
Experimental: as §1, with “COR/COR-MO/CFA-Ile were dissolved in DMSO, (3R,7S)/(3R,7R)-JA-Ile and cis-OPDA were dissolved in ethanol, JA was dissolved in sterilized water to generate 10 mM stock solutions and diluted with corresponding solvent for preparation of 100 μM and 1 mM stock solutions, respectively. JAZ1/9” for “JAZ1/9”
as §2

COI1-JAZ9 [2] = molecular target: T3, COI1-JAZ9 (Arabidopsis thaliana, UniProt O04197+Q8W4J8); test: DSF assay, COI1 with JAZ9 degron peptide (JAZP9); type: binding
T3 sequence (Q8W4J8 218-238, one chain of several): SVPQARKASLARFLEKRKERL
Experimental: as §1, with “COR/COR-MO/CFA-Ile were dissolved in DMSO, (3R,7S)/(3R,7R)-JA-Ile and cis-OPDA were dissolved in ethanol, JA was dissolved in sterilized water to generate 10 mM stock solutions and diluted with corresponding solvent for preparation of 100 μM and 1 mM stock solutions, respectively. JAZ1/9” for “JAZ1/9”
as §2

COI1-JAZ9 [3] = molecular target: T3, COI1-JAZ9; set-up: method as in PMID 19349968; details: pull-down assay, times stronger ref 12; cited from earlier work
COI1-JAZP1 = molecular target: COI1-JAZP1; set-up: method as in PMID 20927106; details: previously obtained ref 19; cited from earlier work
COI1 [4] = molecular target: T2, COI1; details: read-out: Kd (COI1, iTC assay); previously reported using the iTC assay ref 18; cited from earlier work
GST-COI1 = molecular target: T4, GST-COI1 (Arabidopsis thaliana, UniProt O04197); test: Isothermal titration calorimetry (iTC), GST-COI1 only; type: binding
T4 construct: made in house; host or cells: Sf9 insect cells
T4 sequence (O04197 1-592): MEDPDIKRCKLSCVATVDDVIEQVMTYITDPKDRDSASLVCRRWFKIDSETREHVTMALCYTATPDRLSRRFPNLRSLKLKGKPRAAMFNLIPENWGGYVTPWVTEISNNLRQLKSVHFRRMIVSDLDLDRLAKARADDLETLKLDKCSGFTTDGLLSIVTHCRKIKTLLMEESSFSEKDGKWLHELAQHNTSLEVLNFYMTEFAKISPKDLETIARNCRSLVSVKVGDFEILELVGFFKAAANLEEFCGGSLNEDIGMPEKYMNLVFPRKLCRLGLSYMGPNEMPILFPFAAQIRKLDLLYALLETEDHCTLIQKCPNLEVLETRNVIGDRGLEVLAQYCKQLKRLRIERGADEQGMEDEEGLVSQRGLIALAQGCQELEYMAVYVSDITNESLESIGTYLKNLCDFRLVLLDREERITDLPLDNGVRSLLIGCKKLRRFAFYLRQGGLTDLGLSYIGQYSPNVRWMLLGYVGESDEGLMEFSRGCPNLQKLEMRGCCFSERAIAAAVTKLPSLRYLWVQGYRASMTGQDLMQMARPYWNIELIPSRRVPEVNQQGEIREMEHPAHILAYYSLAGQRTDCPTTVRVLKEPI
T4 sequence (Q39255 1-160 partner): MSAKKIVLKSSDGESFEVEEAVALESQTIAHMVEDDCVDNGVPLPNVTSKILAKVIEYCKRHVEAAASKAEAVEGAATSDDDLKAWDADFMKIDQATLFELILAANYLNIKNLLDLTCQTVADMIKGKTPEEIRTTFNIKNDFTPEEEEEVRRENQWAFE
Experimental: (§3) The experiments were performed with iTC 200 Microcalorimeter (MicroCal, Malvern Panalytical, UK) at 25°C. GST-COI1 concentration was determined by BCA assay (Thermo Fisher Scientific, Inc., MA, US) using NanoPhotometerN60 (IMPLEN GmbH, Germany). […] The measurements were carried out by 19 × 2 μL successive injections of solutions (initial injection of 0.4 μL), with a 180s spacing time between injections, stirring of 750 rpm, and a reference power of 5 μcal/s. The measured heat changes of the binding reactions were integrated and processed using the standard “one set of sites” model implemented in the Origin (version 7.0) software package to determine the binding stoichiometry (n) and the equilibrium dissociation constant (Kd) and other thermodynamic parameters (ΔG, ΔH, ΔS).

[5] = Isomerization under DSF conditions analyzed by UPLC-MS/MS; type: physicochemical; details: DSF heating conditions
Description: Thus, some amount of (3R, 7S)-JA-Ile still exists under the DSF heating conditions.

JAZP1 = test system: T5, JAZP1; test: Isothermal titration calorimetry (iTC), JAZP1 only; type: binding, Arabidopsis thaliana; details: 150 μM ligand into JAZP1 (10 μM), only heat of dilution
T5 construct: made in house; host or cells: chemical peptide synthesis
Experimental: as §3

GST-COI1/JAZP1 = molecular target: T6, GST-COI1/JAZP1 (Arabidopsis thaliana, UniProt O04197+Q9LMA8, DEL221-253); test: Isothermal titration calorimetry (iTC), GST-COI1/JAZP1; type: binding
T6 construct: made in house; host or cells: Sf9 insect cells (GST-COI1/ASK1); JAZ peptide by chemical synthesis
Experimental: The experiments were performed with iTC 200 Microcalorimeter (MicroCal, Malvern Panalytical, UK) at 25°C. […] The measurements were carried out by 19 × 2 μL successive injections of solutions (initial injection of 0.4 μL), with a 180s spacing time between injections, stirring of 750 rpm, and a reference power of 5 μcal/s. The measured heat changes of the binding reactions were integrated and processed using the standard “one set of sites” model implemented in the Origin (version 7.0) software package to determine the binding stoichiometry (n) and the equilibrium dissociation constant (Kd) and other thermodynamic parameters (ΔG, ΔH, ΔS).

[6] = set-up: method as in PMID 19349968; details: after 1 h of heating at 95°C ref 12; cited from earlier work

## CCC=CCC1C(=O)CCC1CC(=O)NC1(C(=O)O)CC1CC [JA-CMA, (3R, 7S)/(3R, 7R)-jasmonoyl CMA]
COI1-JAZ1
  pKd: 4.47
COI1 [1]; DSF
  shift in the melting point of COI1: little or no shift
COI1-JAZ9 [2]
  pKd: 4.62

## CC[C@H]1C=C(C(=O)N[C@H](C(=O)O)[C@@H](C)CC)[C@H]2CCC(=O)[C@H]2C1 [CFA-Ile, (3R, 7S)-coronafacyl L-Ile]
COI1-JAZ1; read-out: Kd COI1-JAZ1
  pKd: 5.58
COI1 [1]
  pKd: 4.85
COI1 [1]; DSF
  shift in the melting point of COI1: significant shift
COI1-JAZ9 [2]
  pKd: 5.53

## CC[C@H]1C=C(C(=O)N[C@@]2(C(=O)O)C[C@@H]2CC)[C@H]2CCC(=O)[C@H]2C1 [COR, coronatine]
COI1-JAZ9 [3]
  affinity for COI1-JAZ9 relative to (3R, 7S)-JA-Ile: approximately 100 times
COI1-JAZ1; read-out: Kd COI1-JAZ1
  pKd: 6.22
COI1-JAZP1
  pKd: ~6.96
COI1 [4]
  pKd: 6.02
COI1 [1]
  pKd: 5.39
COI1 [1]; DSF
  shift in the melting point of COI1: shifted to a higher temperature
COI1-JAZ9 [2]
  pKd: 6.54

## CC/C=C\C[C@@H]1C(=O)C=C[C@@H]1CCCCCCCC(=O)O [cis-OPDA, (+)-cis-12-oxo-phytodienoic acid]
COI1 [1]; DSF
  shift in the melting point of COI1: no shift

## CC[C@H]1C=C(C(=O)N[C@@]2(C(=O)O)C[C@@H]2CC)[C@H]2CCC(=NOC)[C@H]2C1 [COR-MO]
COI1-JAZ1; read-out: Kd COI1-JAZ1
  pKd: 5.64
COI1 [1]
  pKd: 5.58
COI1 [1]; DSF
  shift in the melting point of COI1: shifted to a higher temperature
COI1-JAZ9 [2]
  pKd: 5.57

## CCC1C=C(C(=O)N[C@H](C(=O)O)C(C)C)C2CCC(=O)C2C1 (stereo partly drawn) [CFA-Val, (3R, 7S)-coronafacyl L-Val]
COI1-JAZ1; DSF, 1 μM tag-free COI1 with 3 μM JAZP1, read-out: Kd COI1-JAZ1
  pKd: 5.18
COI1 [1]; DSF
  shift in the melting point of COI1: significant shift
COI1 [1]; read-out: Kd COI1, DSF, 1 μM tag-free COI1, ΔTm dose-response curve fitting
  pKd: 4.55
COI1-JAZ9 [2]; DSF, 1 μM tag-free COI1 with 3 μM JAZP9
  pKd: 5.01

## CC/C=C\C[C@H]1C(=O)CC[C@@H]1CC(=O)O (racemic) [racemic jasmonic acid, jasmonic acid]
COI1-JAZ1; DSF, COI1 with JAZP1/9
  effect of addition of JAZP1/9 on the shift in melting point: did not affect the shift in melting point
COI1 [1]; DSF
  shift in the melting point of COI1: no shift

## CC/C=C\C[C@@H]1C(=O)CC[C@@H]1CC(=O)N[C@H](C(=O)O)[C@@H](C)CC [(3R, 7S)-JA-Ile, (3R, 7S)-jasmonoyl-L-isoleucine]
GST-COI1
  pKd: 4.96
GST-COI1; iTC, GST-COI1
  -TΔS: 13.3 kcal/mol
  ΔG: -6.8 kcal/mol
  ΔH: -20.0 kcal/mol
GST-COI1; iTC, GST-COI1, N = 1 set manually due to low C condition
  n (binding stoichiometry): 1.00
[5]
  (3R, 7R)-JA-Ile formed by isomerization under DSF conditions: 63.9%
  (3R, 7S)-JA-Ile remaining under DSF conditions: 36.1%
COI1-JAZ1; read-out: Kd COI1-JAZ1
  pKd: 4.75
JAZP1
  interaction between JAZP1-ligand: no interaction
GST-COI1/JAZP1
  -TΔS: 14.8 kcal/mol
  n (binding stoichiometry): 0.641±0.0063
  ΔG: -9.5 kcal/mol
  ΔH: -24.3 kcal/mol
COI1-JAZ9 [2]
  pKd: 5.13
[6]
  (3R, 7S)-JA-Ile isomerized to (3R, 7R)-JA-Ile: 65%
